Ki and IC50 data for 16 compounds are collected here from patent US8129366B2, “VLA-4 inhibitory drug” (Daiichi Sankyo Company, Limited, priority 2005, dated 2012).

The structures appear in SMILES notation.

The test deals with T1, hα4 and β1 integrins (Homo sapiens, UniProt P05556+P13612).
T1 construct: expressed in transfected cells; host or cells: CHO cells
The test is described as follows: In vitro inhibition of binding between CHO cells expressing hα4 and β1 integrins and Eu3+-hVCAM-1 D1D7-IgG. The note with it: for Ki: CHO cells expressing hα4 and β1 integrins, Eu3+-hVCAM-1 D1D7-IgG ligand, without HSA; for IC50: in the presence of 3% human serum albumin (HSA final concentration 3%). As to the method: CHO cells which forcibly expressed hα4 and β1 integrins through transfection thereof, were inoculated into a Costar 3599 plate (3×10^4 cells/100 μl/well), and cultured for two days. The cells in the wells were washed two times with buffer A*, and then Eu^3+-hVCAM-1 D1D7-IgG diluted with assay buffer** to 2 nM was added in an amount of 50 μl/well. The substance under test diluted with 26 DMSO-assay buffer (in the co-presence or absence of 6% human serum albumin) was added in an amount of 50 μl/well (adding separately diluted solution to the wells for performing Scatchard analysis), the contents were stirred for 5 minutes with a plate mixer, and then the plate was left to stand still for one hour at room temperature. The binding inhibitory activity in the presence of human serum albumin (HSA) was examined by diluting the specimen with 26 DMSO-assay buffer containing 6% HSA (SIGMA Corp., c/n A-1653), and adding the resultant (HSA final concentration 3%). After 30 to 60 minutes of the addition of specimen, the plate contents were washed 4 times with buffer A at 4° C., an enhancing reagent (DELFIA SA) was added in an amount of 100 μl/well, and the plate was shaken for 5 minutes using a plate mixer. Subsequently, the fluorescence intensity was measured with a time-resolved fluorometer (DELFIA Wallac). The IC50 of the substance under test (the concentration for 50% inhibition of the binding between CHO cells and Eu^3+-hVCAM-1 D1D7-IgG) was determined from the binding rate obtained from the calculating expression of [(FT−FNS)−(FI−FNS)]/[(FT−FNS)]×100. Here, FT represents the fluorescence intensity of a well not containing the substance under test; FNS represents the fluorescence intensity of a well not containing the substance under test and hVCAM-1 D1D7-IgG; and FI represents the fluorescence intensity of a well containing the substance under test. The Kd value which represents the strength of binding, and Bmax (maximum binding amount) were estimated to be in the range of 0.06 to 20 nM according to the Scatchard analysis method. The evaluation results of the Ki value of the substance under test, and of the IC50 value in the presence of 3% HSA are presented in Tables 2 to 7.
The Ki value was calculated according to the above-described expression. ([L] is the ligand concentration)
[* buffer A: 25 mM HEPES (pH 7.5), 150 mM NaCl, 1 mM Ca^2+, 1 mM Mg^2+, 4 mM Mn2+;
** assay buffer: 25 mM HEPES (pH=7.5), 150 mM NaCl, 1 mM Ca^2+, 1 mM Mg^2+, 4 mM Mn^2+, 0.1% BSA, 20 μM DTPA, with/without 6% ALBUMIN, HUMAN SERUM (C/N A-1653, SIGMA)]

T1 sequence (P13612 34-1032): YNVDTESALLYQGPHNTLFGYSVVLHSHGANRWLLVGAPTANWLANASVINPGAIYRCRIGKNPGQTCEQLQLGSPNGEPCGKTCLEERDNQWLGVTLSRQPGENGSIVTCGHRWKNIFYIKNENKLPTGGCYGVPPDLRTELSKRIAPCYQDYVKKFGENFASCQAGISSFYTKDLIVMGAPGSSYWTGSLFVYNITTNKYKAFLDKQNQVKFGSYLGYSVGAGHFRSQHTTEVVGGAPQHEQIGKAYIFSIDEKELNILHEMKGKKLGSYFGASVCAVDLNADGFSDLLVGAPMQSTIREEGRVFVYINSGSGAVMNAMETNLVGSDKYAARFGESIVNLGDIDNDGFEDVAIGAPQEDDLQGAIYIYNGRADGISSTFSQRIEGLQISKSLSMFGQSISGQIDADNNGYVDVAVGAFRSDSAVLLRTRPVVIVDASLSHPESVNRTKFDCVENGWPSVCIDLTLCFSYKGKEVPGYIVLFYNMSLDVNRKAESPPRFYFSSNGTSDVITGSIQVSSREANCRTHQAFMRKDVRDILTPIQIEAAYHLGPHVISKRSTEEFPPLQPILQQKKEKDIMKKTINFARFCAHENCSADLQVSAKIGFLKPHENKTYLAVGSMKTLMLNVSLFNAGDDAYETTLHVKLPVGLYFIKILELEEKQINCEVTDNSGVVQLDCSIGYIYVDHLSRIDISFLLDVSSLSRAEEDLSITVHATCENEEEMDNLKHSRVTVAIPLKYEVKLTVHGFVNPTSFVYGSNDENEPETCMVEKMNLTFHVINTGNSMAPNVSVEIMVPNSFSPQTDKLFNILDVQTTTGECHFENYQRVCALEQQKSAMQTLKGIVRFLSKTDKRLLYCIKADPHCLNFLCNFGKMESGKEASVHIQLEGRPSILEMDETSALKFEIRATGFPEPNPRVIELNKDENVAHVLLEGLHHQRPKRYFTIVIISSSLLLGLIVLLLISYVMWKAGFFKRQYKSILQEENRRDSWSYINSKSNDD
T1 sequence (P05556 21-798): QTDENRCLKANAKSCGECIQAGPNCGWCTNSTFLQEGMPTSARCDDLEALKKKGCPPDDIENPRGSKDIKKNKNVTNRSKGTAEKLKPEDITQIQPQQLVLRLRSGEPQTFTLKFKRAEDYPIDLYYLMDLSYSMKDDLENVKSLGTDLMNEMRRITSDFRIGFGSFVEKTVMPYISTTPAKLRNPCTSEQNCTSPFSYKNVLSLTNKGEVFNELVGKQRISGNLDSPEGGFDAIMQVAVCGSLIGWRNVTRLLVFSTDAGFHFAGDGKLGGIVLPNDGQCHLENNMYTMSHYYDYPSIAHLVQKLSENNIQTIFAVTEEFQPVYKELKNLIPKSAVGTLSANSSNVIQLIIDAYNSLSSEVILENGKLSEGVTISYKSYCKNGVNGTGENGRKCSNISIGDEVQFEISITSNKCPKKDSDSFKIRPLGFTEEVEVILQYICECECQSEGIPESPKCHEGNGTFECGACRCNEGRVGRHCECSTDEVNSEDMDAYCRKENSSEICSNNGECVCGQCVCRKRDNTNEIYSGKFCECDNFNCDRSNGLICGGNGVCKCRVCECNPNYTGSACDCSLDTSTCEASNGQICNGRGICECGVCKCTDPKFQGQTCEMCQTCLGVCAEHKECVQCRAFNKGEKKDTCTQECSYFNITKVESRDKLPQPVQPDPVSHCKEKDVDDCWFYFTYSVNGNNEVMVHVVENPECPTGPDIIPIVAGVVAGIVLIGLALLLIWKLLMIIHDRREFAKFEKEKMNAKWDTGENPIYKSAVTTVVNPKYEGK

For `CN(C)C1CCN([C@H]2C[C@@H](CO[C@H]3CC[C@H](C(=O)O)CC3)N(C(=O)Cc3cc(Cl)c(NC(=O)c4cn(C)c5ccccc45)cc3F)C2)CC1` [Example 109, Trans-4-[1-[[5-chloro-2-fluoro-4-[(1-methyl-1H-indol-3-ylcarbonyl)amino]phenyl]acetyl]-(4S)-[4-(N,N-dimethylamino)piperidin-1-yl]-(2S)-pyrrolidinylmethoxy]cyclohexanecarboxylic acid], the Ki came out at 3.6 nM and the half-maximal inhibitory concentration (IC50) was 5.2 nM.

Take `C[C@@H]1CN([C@H]2C[C@@H](CO[C@H]3CC[C@H](C(=O)O)CC3)N(C(=O)Cc3cc(Cl)c(NC(=O)c4csc5ccccc45)cc3F)C2)C[C@H](C)O1` [Example 79, Trans-4-[1-[[4-[(benzo[b]thiophen-3-ylcarbonyl)amino]-5-chloro-2-fluorophenyl]acetyl]-(4S)-(cis-2,6-dimethylmorpholin-4-yl)-(2S)-pyrrolidinylmethoxy]cyclohexanecarboxylic acid]: affinity was put at a Ki of 0.74 nM and the IC50 worked out at 4.1 nM.

Turning to `Cn1cc(C(=O)Nc2ccc(CC(=O)N3C[C@@H](N4CCN(CC(F)(F)F)CC4)C[C@H]3CO[C@H]3CC[C@H](C(=O)O)CC3)cc2Cl)c2ccccc21` [Example 130, Trans-4-[1-[[3-chloro-4-[(1-methyl-1H-indol-3-ylcarbonyl)amino]phenyl]acetyl]-(4S)-[4-(2,2,2-trifluoroethyl)piperazin-1-yl]-(2S)-pyrrolidinylmethoxy]cyclohexanecarboxylic acid], the Ki came to 2.7 nM and the IC50 was found to be 7.5 nM.

On to `CO[C@H]1CN([C@H]2C[C@@H](CO[C@H]3CC[C@H](C(=O)O)CC3)N(C(=O)Cc3cc(Cl)c(NC(=O)c4cn(C)c5ccccc45)cc3F)C2)C[C@H]1OC` [Example 55, Trans-4-[1-[[5-chloro-2-fluoro-4-[(1-methyl-1H-indol-3-ylcarbonyl)amino]phenyl]acetyl]-(4S)-(cis-3,4-dimethoxypyrrolidin-1-yl)-(2S)-pyrrolidinylmethoxy]cyclohexanecarboxylic acid], for which affinity was put at a Ki of 2.6 nM and the IC50 came to 9.2 nM.

As for `Cn1cc(C(=O)Nc2cc(F)c(CC(=O)N3C[C@@H](N4CCSCC4)C[C@H]3CO[C@H]3CC[C@H](C(=O)O)CC3)cc2Cl)c2ccccc21` [Example 158, Trans-4-[1-[[5-chloro-2-fluoro-4-[(1-methyl-1H-indol-3-ylcarbonyl)amino]phenyl]acetyl]-(4S)-(thiomorpholin-4-yl)-(2S)-pyrrolidinylmethoxy]cyclohexanecarboxylic acid], the affinity, expressed as Ki, was 4 nM and the IC50 is 16 nM.

As to `Cn1cc(C(=O)Nc2cc(Cl)c(CC(=O)N3C[C@@H](N4CCN(CCF)CC4)C[C@H]3CO[C@H]3CC[C@H](C(=O)O)CC3)cc2Cl)c2ccccc21` [Example 117, Trans-4-[1-[[2,5-dichloro-4-[(1-methyl-1H-indol-3-ylcarbonyl)amino]phenyl]acetyl]-(4S)-[4-(2-fluoroethyl)piperazin-1-yl]-(2S)-pyrrolidinylmethoxy]cyclohexanecarboxylic acid], the affinity, expressed as Ki, was 4.5 nM and the half-maximal inhibitory concentration (IC50) was found to be 12 nM.

For `Cn1cc(C(=O)Nc2cc(F)c(CC(=O)N3C[C@@H](N4CC[C@H](F)C4)C[C@H]3CO[C@H]3CC[C@H](C(=O)O)CC3)cc2Cl)c2ccccc21` [Example 37, Trans-4-[1-[[5-chloro-2-fluoro-4-[(1-methyl-1H-indol-3-ylcarbonyl)amino]phenyl]acetyl]-(4S)-[(3S)-fluoropyrrolidin-1-yl]-(2S)-pyrrolidinylmethoxy]cyclohexanecarboxylic acid], the affinity corresponds to a Ki of 2.1 nM and the IC50 came to 9.2 nM.

Regarding `COC1(C)CN([C@H]2C[C@@H](CO[C@H]3CC[C@H](C(=O)O)CC3)N(C(=O)Cc3cc(Cl)c(NC(=O)c4cn(C)c5ccccc45)cc3F)C2)C1` [Example 16, Trans-4-[1-[[5-chloro-2-fluoro-4-[(1-methyl-1H-indol-3-ylcarbonyl)amino]phenyl]acetyl]-(4S)-(3-methoxy-3-methylazetidin-1-yl)-(2S)-pyrrolidinylmethoxy]cyclohexanecarboxylic acid], the inhibition constant Ki is 5.3 nM and the IC50 came out at 41 nM.

For `Cn1cc(C(=O)Nc2cc(F)c(CC(=O)N3C[C@@H](N4CCN(C5CCCC5)CC4)C[C@H]3CO[C@H]3CC[C@H](C(=O)O)CC3)cc2Cl)c2ccccc21` [Example 142, Trans-4-[1-[[5-chloro-2-fluoro-4-[(1-methyl-1H-indol-3-ylcarbonyl)amino]phenyl]acetyl]-(4S)-[4-cyclopentylpiperazin-1-yl]-(2S)-pyrrolidinylmethoxy]cyclohexanecarboxylic acid], the inhibitory constant (Ki) came to 4.7 nM and the IC50 is 11 nM.

Consider `O=C(Nc1cc(Cl)c(CC(=O)N2C[C@@H](N3CCCN(C4CC4)CC3)C[C@H]2CO[C@H]2CC[C@H](C(=O)O)CC2)cc1Cl)c1csc2ccccc12` [Example 169, Trans-4-[1-[[4-[(benzo[b]thiophen-3-ylcarbonyl)amino]2,5-dichlorophenyl]acetyl]-(4S)-(4-cyclopropyl-[1,4]-diazepan-1-yl)-(2S)-pyrrolidinylmethoxy]cyclohexanecarboxylic acid], for which the inhibition constant Ki is 1.1 nM and the IC50 was determined as 5.9 nM.

`Cn1cc(C(=O)Nc2cc(F)c(CC(=O)N3C[C@@H](N4CCC(F)(F)CC4)C[C@H]3CO[C@H]3CC[C@H](C(=O)O)CC3)cc2Cl)c2ccccc21` [Example 101, Trans-4-[1-[[5-chloro-2-fluoro-4-[(1-methyl-1H-indol-3-ylcarbonyl)amino]phenyl]acetyl]-(4S)-(4,4-difluoropiperidin-1-yl)-(2S)-pyrrolidinylmethoxy]cyclohexanecarboxylic acid]: the inhibition constant (Ki) amounted to 4 nM and the half-maximal inhibitory concentration (IC50) was found to be 17 nM.

For `CC1CN([C@H]2C[C@@H](CO[C@H]3CC[C@H](C(=O)O)CC3)N(C(=O)Cc3cc(Cl)c(NC(=O)c4coc5ccccc45)cc3F)C2)C1` [Example 11, Trans-4-[1-[[4-[(benzo[b]furan-3-ylcarbonyl)amino]-5-chloro-2-fluorophenyl]acetyl]-(4S)-(3-methylazetidin-1-yl)-(2S)-pyrrolidinylmethoxy]cyclohexanecarboxylic acid], affinity was put at a Ki of 3.5 nM and the IC50 is 21 nM.

Take `O=C(Nc1cc(Cl)c(CC(=O)N2C[C@@H](n3ccnc3)C[C@H]2CO[C@H]2CC[C@H](C(=O)O)CC2)cc1Cl)c1csc2ccccc12` [Example 68, Trans-4-[1-[[4-[(benzo[b]thiophen-3-ylcarbonyl)amino]-2,5-dichlorophenyl]acetyl]-(4S)-(imidazol-1-yl)-(2S)-pyrrolidinylmethoxy]cyclohexanecarboxylic acid]: the inhibitory constant (Ki) turned out to be 2.1 nM and the IC50 is 30 nM.

For the compound `C[C@@H]1CN([C@H]2C[C@@H](CO[C@H]3CC[C@H](C(=O)O)CC3)N(C(=O)Cc3cc(Cl)c(NC(=O)c4coc5ccccc45)cc3F)C2)C[C@H](C)N1C` [Example 146, Trans-4-[1-[[4-[(benzo[b]furan-3-ylcarbonyl)amino]-5-chloro-2-fluorophenyl]acetyl]-(4S)-(cis-1,2,6-trimethylpiperazin-4-yl)-(2S)-pyrrolidinylmethoxy]cyclohexanecarboxylic acid], the Ki is 2.6 nM and the 50% inhibitory concentration (IC50) came out at 7.6 nM.

Turning to `O=C(Nc1cc(Cl)c(CC(=O)N2C[C@@H](N3CCN(C4CCCCC4)CC3)C[C@H]2CO[C@H]2CC[C@H](C(=O)O)CC2)cc1Cl)c1coc2ccccc12` [Example 143, Trans-4-[1-[[4-[(benzo[b]furan-3-ylcarbonyl)amino]-2,5-dichlorophenyl]acetyl]-(4S)-[4-cyclohexylpiperazin-1-yl]-(2S)-pyrrolidinylmethoxy]cyclohexanecarboxylic acid], affinity was put at a Ki of 3.5 nM and the IC50 is 14 nM.

As for `COc1cc(CC(=O)N2C[C@@H](N3CCN(CC(F)(F)F)CC3)C[C@H]2CO[C@H]2CC[C@H](C(=O)O)CC2)ccc1NC(=O)c1csc2ccccc12` [Example 133, Trans-4-[1-[[4-[(benzo[b]thiophen-3-ylcarbonyl)amino]-3-methoxyphenyl]acetyl]-(4S)-[4-(2,2,2-trifluoroethyl)piperazin-1-yl]-(2S)-pyrrolidinylmethoxy]cyclohexanecarboxylic acid], affinity was put at a Ki of 1.3 nM and the IC50 was 3.3 nM.

As usually defined, the Ki is a measure of affinity in units of concentration, obtained from inhibition or displacement. By IC50 is commonly meant the concentration that inhibits the measured activity by half.
